Experiment [1] has as its system Human osteosarcoma U2OS cells. Nature of the experiment: Assay to measure lysosome and autolysosome (acidic vesicle) formation in U2OS cells. The settings on record: for activation at 0.8 µM: Homo sapiens, concentration of 0.8 μM, read-out: Activity (percentage increase in acidic vesicle formation over the DMSO-treated control). The format is cell-based. On the procedure:
Lysosomes play a fundamental role in the autophagic pathway by fusing with autophagosomes and creating ‘autolysosomes’ in order to digest their contents. Stimulation of lysosome and autolysosome formation by a compound is indicative of a stimulation of autophagy. The ability of compounds to stimulate lysosome and autolysosome formation, and thus autophagy, in live cells was assessed via fluorescent microscopy using various fluorescent stains for labelling and tracking acidic organelles (including lysosomes and autolysosomes) such as: LysoView™ 650 (70059 and 70059-T, Biotium), Lyso View™633 (70058 and 70058-T, Biotium) and LysoTracker™ Deep Red (L12492, ThermoFisher Scientific). The cellular phenotype was quantitatively assessed for the induction of acidic vesicle formation and compared to a non-treated control, thus providing a measure of the ability of the compound under investigation to stimulate autophagy.
Representative procedure using LysoView™ 633 dye or LysoTracker™ Deep Red dye: Human osteosarcoma U2OS cells (40,000 cells/well) were seeded in a 24 well glass bottom plate (Sensoplate, Greiner Bio-One) and were incubated overnight in a humidified atmosphere at 37° C. and 5% CO2. Cells were grown in DMEM (Gibco) supplemented with 10% Fetal Bovine Serum (FBS) and 100 units/ml penicillin and 100 μg/ml streptomycin (Invitrogen). After the attachment period, cells were treated with different compounds of interest (at various concentrations in DMSO) or DMSO (non-treated control) in cell culture medium and were incubated for 24 hours. Compound-containing medium was removed and cells were incubated with pre-warmed cell culture medium containing 1× Lyso View™ 633 (70058 and 70058-T, Biotium) or 50 nM LysoTracker™ Deep Red (L12492, ThermoFisher Scientific) for 45 minutes at 37° C. Finally, cell nuclei were stained for 10 minutes using Hoechst 33342 (1 μg/mL) and then the medium was replaced with fresh medium. The 24 well plate was then fitted into a heated stage on the microscope and cells maintained at 37° C. Images were captured using appropriate filter set for Cy5 and DAPI detection with the EVOS M7000 Microscope (ThermoFisher Scientific). The cellular phenotype was visually assessed for the induction of acidic vesicle formation relative to the non-treated control; multiple images were acquired and analysed using ImageJ or Cell Profiler.

The test system of experiment [2] is SH-SY5Y cells. Nature of the experiment: Acidic vesicle formation in SH-SY5Y cells (LysoTracker Deep Red). The following applies: 24 hours, relative to DMSO-treated control. The experiment is classed as cell-based, human. On the procedure: This is evidence for significant stimulation of autophagy by this compound under these conditions. SH-SY5Y cells are a human-derived neuroblastoma cell line widely used in in vitro models of neurological disorders (Ross R A, Spengler B A, Biedler J L. Coordinate morphological and biochemical interconversion of human neuroblastoma cells. J Natl Cancer Inst. 1983 October; 71 (4): 741-7. PMID: 6137586).
A brief description of the procedure employed is outlined here: • Day 1: Cells were seeded at 15K cells/well in the middle 60 wells of 6×96 well Cellvis imaging plates • Day 2: Media was replaced with 90 μl of DMEM/F12 (+10% FBS/1% P/S) containing NucBlue Live and the cells were treated with 10 μl of compound (10× concentrated) in triplicate for 24 hours. • Day3: Treatment was removed and cells were incubated for 30 minutes with LysoTracker™ Deep Red dye. Cells were washed twice with media and immediately imaged on EVOS M7000 at ×20 (6 images per well, 30 minutes imaging time/plate). Images were analysed using Celleste Image analysis software.

For experiment [3], the system named is primary culture of dopaminergic Tyrosine hydroxylase (TH)-positive neurons. Nature of the experiment: Cellular model of Parkinson's disease (MPTP/MPP+ injury). The experiment is classed as cell-based, rat. From the text: This model (run by Neuro-Sys SAS, France) is based on a primary culture of dopaminergic Tyrosine hydroxylase (TH)-positive neurons injured with the dopaminergic neurons-specific toxin (DA-toxin) 1-methyl-4-phenyl-1,2,3,6 tetrahydropyridine (MPTP, a prodrug of MPP^+) (Dauer and Przedborski, 2003). Any substances reducing DA-toxin neurotoxicity may be useful as a new therapeutic agent for the treatment or prevention of PD.
Primary culture of mesencephalic neurons: Rat dopaminergic neurons were cultured as described by Visanji et al., 2008 and Callizot et al., 2019. Briefly, pregnant female rat (Wistar) of 15 days of gestation were killed using a deep anesthesia with CO2 chamber and a cervical dislocation. The midbrains obtained from 15-day-old rat embryos (Janvier, France) were dissected under a microscope. The embryonic midbrains will be removed and placed in ice-cold medium of Leibovitz (L15) containing 2% of Penicillin-Streptomycin (PS) and 1% of bovine serum albumin (BSA). The ventral portion of the mesencephalic flexure, a region of the developing brain rich in dopaminergic neurons, was used for the cell preparations.
The midbrains were dissociated by trypsinisation for 20 min at 37° C. (solution at a final concentration of 0.05% trypsin and 0.02% EDTA). The reaction was stopped by the addition of Dulbecco's modified Eagle's medium (DMEM) containing DNAase I grade II (0.5 mg/mL) and 10% of foetal calf serum (FCS). Cells were then mechanically dissociated by 3 passages through a 10 ml pipette. Cells were then centrifuged at 180×g for 10 min at +4° C. on a layer of BSA (3.5%) in L15 medium. The supernatant was discarded, and the cell pellets re-suspended in a defined culture medium consisting of Neurobasal supplemented with B27 (2%), L-glutamine (2 mM) and 2% of PS solution and 10 ng/mL of Brain-derived neurotrophic factor (BDNF) and 1 ng/ml of Glial-Derived Neurotrophic Factor (GDNF). Viable cells were counted in a Neubauer cytometer using the trypan blue exclusion test. The cells were seeded at a density of 40,000 cells/well in 96 well-plates (pre-coated with poly-L-lysine) and maintained in a humidified incubator at 37° C. in 5% CO2/95% air atmosphere. Half of the medium was changed every 2 days with fresh medium. The wells of first and last lines and columns […] (to avoid any edge effect) and were be filled with sterile water.
• i) Pre-incubation. On day 6 of culture, the test compounds were dissolved in PBS or DMSO and incubated for 1 hour before the MPTP exposure. • ii) Injury. One hour after the application of test compound, MPTP was added to a final concentration of 4 μM, diluted in control medium still in presence of compounds/inhibitors for 48 h. Test compounds were tested on one culture in 96-well plate (n=6 culture wells per condition).
Immunostaining: TH and α-Synuclein. 48 Hours after intoxication, the cell culture supernatant was removed, and the cells were fixed by a solution of 4% paraformaldehyde in PBS, pH=7.3 for 20 min at room temperature. The cells were washed twice in PBS, and then permeabilized. Non-specific sites were blocked with a solution of PBS containing 0.1% of saponin and 1% FCS for 15 min at room temperature. The cultures were incubated with: (a) monoclonal anti-Tyrosine Hydroxylase (TH) antibody produced in mouse at dilution of 1/10000 in PBS containing 1% FCS, 0.1% saponin, for 2 hours at room temperature, and (b) polyclonal anti-alpha synuclein (α-synuclein) antibody produced in rabbit at dilution of 1/200 in PBS containing 1% FCS, 0.1% saponin, for 2 h at room temperature.
Automatic computer analysis. For each condition, 20 pictures (representing the whole well area) were automatically taken using ImageXpress® (Molecular Devices) at 10× magnification (20 pictures, for TH and α-synuclein into TH neurons) using the same acquisition parameters. From images, analyses was directly and automatically performed by MetaXpress® (Molecular Devices). […]

Where only a bound is given, the exact number is not on record here.

On to `CCN1CCC(NC(=O)c2cc(-c3nnc(-c4ccccc4)s3)cs2)CC1` [Compound 259, N-(1-ethylpiperidin-4-yl)-4-(5-phenyl-1,3,4-thiadiazol-2-yl)thiophene-2-carboxamide], for which, in experiment [1], the activation at 0.8 µM was 10 to 30%. The “acidic vesicle formation relative to a DMSO-treated control” value in experiment [1] (concentration of 10 μM, 24 hours) is “only a slight increase”. Besides, in experiment [2], the “Fold change in acidic vesicle formation at compound concentration of 0.8 μM” value (shortened to “Fold change … of 0.8 μM”) is 2.3 fold and the “Fold change in acidic vesicle formation at compound concentration of 10 μM” value (“Fold change … of 10 μM” for short) turned out to be 3.6 fold.

For `CCN1CCC(NC(=O)c2cc(-c3cnn(-c4ccccc4)c3)c[nH]2)CC1` [Compound 257, N-(1-ethylpiperidin-4-yl)-4-(1-phenyl-1H-pyrazol-4-yl)-1H-pyrrole-2-carboxamide], the activation at 0.8 µM in experiment [1] lay in the range of 50 to 100%. Further, in experiment [2], the “Fold change … of 0.8 μM” value is 1.9 fold and the “Fold change … of 10 μM” value turned out to be 2.6 fold.

Consider `CCN1CCC(N(C(=O)c2csc(-c3cnn(-c4ccccc4)c3)n2)C(C)C)CC1` [Compound 218, N-(1-ethylpiperidin-4-yl)-2-(1-phenyl-1H-pyrazol-4-yl)-N-(propan-2-yl)-1,3-thiazole-4-carboxamide], for which, in experiment [1], the activation at 0.8 µM lay in the range of 30 to 50%. Besides, in experiment [2], the “Fold change … of 0.8 μM” value is recorded as 1.6 fold and the “Fold change … of 10 μM” value came out at 4.8 fold.

On to `CCN1CCC(N(C)C(=O)c2cc(-c3cnn(-c4ccccc4)c3)c[nH]2)CC1` [Compound 256, N-(1-ethylpiperidin-4-yl)-N-methyl-4-(1-phenyl-1H-pyrazol-4-yl)-1H-pyrrole-2-carboxamide], for which, in experiment [1], the activation at 0.8 µM was 30 to 50%. In experiment [2], the “Fold change … of 0.8 μM” value was 1.8 fold and the “Fold change … of 10 μM” value was 2.7 fold.

Regarding `O=C(O)C1CCCN1C(=O)c1csc(-c2cnn(-c3ccccc3)c2)n1` (stereo not shown) [Compound 144, 1-[2-(1-phenyl-1H-pyrazol-4-yl)-1,3-thiazole-4-carbonyl]pyrrolidine-2-carboxylic acid], the “effects in the in vitro model of PD based on MPP+ injury” value in experiment [3] was “positive effects”. Further, the “increase in the number of dopaminergic TH positive neurons” value in experiment [3] (100 nM, compared to MPTP injury alone) amounted to 25%. Further, in experiment [3] (1 μM, 500 nM and 100 nM, compared to MPP+ injury alone), the “decrease in α-syn area per dopaminergic TH positive neuron” value is on record as greater than 15%.

For the molecule `CC(C)(C)N1CCC(NC(=O)c2csc(-c3cnn(-c4ccccc4)c3)n2)CC1` [Compound 248, N-(1-tert-butylpiperidin-4-yl)-2-(1-phenyl-1H-pyrazol-4-yl)-1,3-thiazole-4-carboxamide], in experiment [2], the “Fold change … of 0.8 μM” value came to 2.2 fold and the “Fold change … of 10 μM” value was 1.9 fold.

Take `C[C@H]1CN(C(=O)c2cc(-c3cnn(-c4ccccc4)c3)c[nH]2)CCN1` [Compound 3, (3S)-3-methyl-1-[4-(1-phenyl-1H-pyrazol-4-yl)-1H-pyrrole-2-carbonyl]piperazine]: in experiment [2], the “Fold change … of 0.8 μM” value is given as 1.6 fold and the “Fold change … of 10 μM” value is recorded as 3.5 fold.

On to `C[C@H]1CN(C(=O)c2csc(-c3cnn(-c4ccccc4)n3)n2)CCN1` [Compound 238, (3S)-3-methyl-1-[2-(2-phenyl-2H-1,2,3-triazol-4-yl)-1,3-thiazole-4-carbonyl]piperazine], for which, in experiment [2], the “Fold change … of 0.8 μM” value is recorded as 2.1 fold and the “Fold change … of 10 μM” value was 2.9 fold.

The record behind these values is patent publication US20250034127A1, “AUTOPHAGY INDUCING COMPOUNDS AND USES THEREOF, IN PARTICULAR FOR DISEASES OF THE CNS” (Samsara Therapeutics Inc., priority 2021, published 2025).
